The text below walks through data of patent US20240262805A1, “METHOD FOR PRODUCING COMPOUND OR PHARMACEUTICALLY ACCEPTABLE SALT THEREOF” (EA PHARMA CO., LTD., priority 2021, published 2024).

Structures can show the parent of a compound that is named as a salt.

Holding throughout (format): physicochemical
Data set [1] is described as follows: Deliquescence on standing at 60% RH and 25° C. The settings on record: left in an environment of 60% RH and 25° C.; initially white powder. As to the method:
In reference to the description on page 56 in Patent Literature 1 (International Publication No. WO2017/135472), the compound 10-BoC was deprotected. Specifically, the compound 10-BoC was dissolved in ethyl acetate and the reaction liquid was cooled to 5° C. After that, a hydrochloric acid/ethyl acetate solution was added dropwise thereto, followed by stirring at 20° C. for 16 hours. After that, the solid was filtered out and dried under reduced pressure to obtain a compound 16-HCl (a hydrochloric acid salt of the compound 16). The obtained compound was initially white powder, but when left in an environment of 60% RH and 25° C., was completely deliquesced within 24 hours.

The nature of data set [2]: Measurement of moisture absorption (automatic gas and vapor adsorption analyzer). The settings on record: BELSORP Aqua3 automatic gas and vapor adsorption analyzer. The procedure:
Regarding the crystals B and C, the moisture absorption was measured by using an automatic gas and vapor adsorption analyzer (BELSORP Aqua3 manufactured by MicrotracBEL Corp.)

Data set [3] in a line: Measurement of solubility at pH 6.9 (saturated solution, HPLC). The settings on record: second dissolution test solution (pH 6.9), shaken at 20° C. for 24 hours, filtrate determined by HPLC. As to the method:
Specifically, the crystal B can achieve a solubility at pH 6.9 of 50 μg/ml or more. Here, the solubility at pH 6.9 is measured by HPLC analysis. Specifically, the solubility at pH 6.9 can be measured in the method described below in Examples.
Regarding the crystals B and C, the solubility at pH 6.9 was measured. Specifically, a sample was excessively added to a second dissolution test solution (pH 6.9) (manufactured by Kanto Chemical Co., Inc.), and the mixture was shaken at 20° C. for 24 hours to produce a saturated solution. After the undissolved sample was removed with a filter, the amount of the compound in the filtrate was determined by HPLC, and the solubility […] was calculated.

For `Cc1cc(=O)n(-c2ccc(C[C@H](N)C(=O)OCC(C)C)cn2)c(=O)n1C` [compound 16-HCl], in data set [1], the “time until completely deliquesced” value is ≤ 24 h. A word on the solubility: it is the concentration that dissolves in the medium under given conditions. Read a low solubility as a poorly soluble substance. Take `Cc1cc(=O)n(-c2ccc(C[C@H](NC(=O)c3cc(F)c(NS(=O)(=O)c4ccc(NC(=O)C(C)(C)C)cc4)cc3F)C(=O)OCC(C)C)cn2)c(=O)n1C` [crystal B, isobutyl(S)-2-(2,5-difluoro-4-((4-pivalamidophenyl)sulfonamido)benzamide)-3-(6-(3,4-dimethyl-2,6-dioxo-3,6-dihydropyrimidin-1(2H)-yl)pyridin-3-yl)propanoate]: the “moisture absorption (at maximum)” value in data set [2] is given as ≤ 1.35%. In data set [3], the “solubility at pH 6.9” value is recorded as 150 μg/ml.

With `Cc1cc(=O)n(-c2ccc(C[C@H](NC(=O)c3cc(F)c(NS(=O)(=O)c4ccc(NC(=O)C(C)(C)C)cc4)cc3F)C(=O)OCC(C)C)cn2)c(=O)n1C` [crystal C, isobutyl(S)-2-(2,5-difluoro-4-((4-pivalamidophenyl)sulfonamido)benzamide)-3-(6-(3,4-dimethyl-2,6-dioxo-3,6-dihydropyrimidin-1(2H)-yl)pyridin-3-yl)propanoate], the “moisture absorption (at maximum)” value in data set [2] is ≤ 0.24%. Besides, the “solubility at pH 6.9” value in data set [3] is on record as 25.0 μg/ml.
